Results as given in US20240269088A1, “PAIN RELIEF PATCH” (CS MEDICA A/S, priority 2021, published 2024).

System: pain
Assay: Comparison of skin patches formulated with type A versus type B crystalline CBD
Format: in vivo
Description: The “potency” and/or “activity” of “type A” CBD can e.g. be determined by comparing the effect using essentially identical compositions with the exception of the type and/or quantity of CBD used. Said potency, activity and or effect can e.g. be determined essentially as disclosed in the Examples by replacing the placebo with the “B-type” CBD comprising formulation. Alternatively, the potency can be determined in the quantity of CBD needed to provide the same effect, such as pain relief.
Two different sets of skin patches are provided according to Example 1, e.g. formulation A or F, the only difference being that the crystalline CBD used in the formulation is either of type A (needle-like crystals; FIG. 9) or type B (bunch/cluster-like; FIG. 10).
Type A crystalline CBD is sourced from Enecta, while type B CBD is sourced from Pharma Hemp.
Such tests can e.g. be performed, mutatis mutandis, according to Examples 1-4.

With `C=C(C)[C@@H]1CCC(C)=C[C@H]1c1c(O)cc(CCCCC)cc1O` [type A CBD, Cannabidiol] the “Potency of CBD with needle-like crystal structure compared with CBD of crystal structure B” value (observed by the inventors, see Example 6) was “significantly more potent” and the “Activity of skin patch with type A CBD compared with comparable skin patch with type B CBD” value (skin patches according to Example 1, e.g. formulation A or F, only the crystalline CBD differs) was “significantly more active”.
